Source: patent US20180064780A1, “SHEAR CONTROLLED RELEASE FOR STENOTIC LESIONS AND THROMBOLYTIC THERAPIES” (PRESIDENT AND FELLOWS OF HARVARD COLLEGE, priority 2010, published 2018)

Legend:
[1] = tested on: ex vivo whole mouse lung with fibrin emboli; assay: Mouse pulmonary embolism model (ex vivo whole lung ventilation-perfusion); format: in vivo
Method: Mouse Pulmonary Embolism Model—
Male 6-8 week-old C57BL/6 mice (Jackson Laboratory, Bar Harbor, Me.) were weighed and anesthetized with Avertin (200 mg/kg IP). The trachea was incised via surgical tracheotomy, and cannulated with a blunted 22G stainless steel needle tip. The lungs were subsequently ventilated at a rate of 60 breaths/min, with a Peak Inspiratory Pressure (Pip) of 10 cm H2O and a Positive End Expiratory Pressure (Peep) of 3 cm H2O with compressed air using a mouse ventilator (VCM-R, Hugo Sachs Elektroniks, Germany). Ex vivo ventilation and perfusion of the mouse lung was performed using a IL1 ex vivo mouse lung ventilation-perfusion system (Harvard Apparatus, Natick, Mass.), (D. Huh et al., Science 328, 1662 (2010)). Following initiation of mechanical ventilation, the chest was opened via thoracotomy, and heparin (100 IU) was injected into the right ventricle. […] A suture was placed around the pulmonary artery and aorta. Cannulae made from polyethylene tubing (PE90 (0.86 mm ID, 1.7 mm OD)) were placed in the pulmonary artery (PA) and left atrium (LA), and lungs were perfused with RPMI-1640 with 4% Bovine Albumin (Probumin™ Reagent Grade, Billerica, Mass.) and 0.7 g NaCl/500 mL via a roller pump (ISM 834C, Ismatec SA, Switzerland) set at a constant flow rate of 0.5 ml/min in a recirculating system with a system volume of 6 mL. Perfusate and lung temperatures were maintained at 37° C. by housing the entire ex-vivo ventilation perfusion system inside a standard cell incubator without CO2 (Forma Scientific, Ohio). Humidity was maintained in the range of 90-95%. Pulmonary arterial and venous pressures and airway flow and pressures were recorded with dedicated Type 379 vascular pressure and DLP2.5 flow and MPX Type 399/2 airway pressure transducers and TAM-A amplifiers (Hugo Sachs Elektroniks, Germany). Vascular pressures were zeroed at the mid lung level prior to each experiment and recorded using Polyview16© software (Grass Technologies, West Warwick, R.I.) running on a desktop PC running Windows XP SP2 (Microsoft Corporation, Redmond, Wash.).
Prior to injection of experimental fibrin clots (prepared as above), the measured parameters were allowed to stabilize and remain stable for a period of more than 10 minutes. A solution of fibrin clots suspended in perfusion medium was infused at a flow rate of 0.1 ml/min and mixed with the regular perfusion line entering the pulmonary artery. The fibrin clot suspension was infused until the pulmonary artery pressure increased to ˜three-fold higher than the baseline. The system was then allowed to equilibrate and remain stable for at least 10 minutes. Next, tPA-coated platelet mimetics or free soluble tPA was added to the main perfusion line and circulated through the perfusion system. As in the microfluidic device experiments, when tPA was perfused, plasminogen was added to obtain a final concentration of 2.2 μM. Pulmonary artery and vein pressures were acquired continuously during the perfusion period. At the end of each experiment, lungs were perfused with 4% paraformaldehyde, and prepared for sectioning by incubating in 4% paraformaldehyde, then sucrose and OCT. All experimental animal protocols were approved by the Institutional Animal Care and Use Committee at Children's Hospital Boston and Harvard Medical School.

fibrin clots = target: T1, fibrin clots (Homo sapiens, UniProt P02671+P02675+P02679); assay: Microfluidic model of vascular embolism (fibrin clot lysis); format: biochemical; conditions: t-PA 50 ng/ml; within 1 hour; 10 dyne/cm^2 in unobstructed channel
T1 construct: purchased Enzyme Research Laboratories, IN (fibrinogen, alpha-thrombin); Cell Sciences, MA (plasminogen)
T1 sequence (P02671 36-629 limits assumed): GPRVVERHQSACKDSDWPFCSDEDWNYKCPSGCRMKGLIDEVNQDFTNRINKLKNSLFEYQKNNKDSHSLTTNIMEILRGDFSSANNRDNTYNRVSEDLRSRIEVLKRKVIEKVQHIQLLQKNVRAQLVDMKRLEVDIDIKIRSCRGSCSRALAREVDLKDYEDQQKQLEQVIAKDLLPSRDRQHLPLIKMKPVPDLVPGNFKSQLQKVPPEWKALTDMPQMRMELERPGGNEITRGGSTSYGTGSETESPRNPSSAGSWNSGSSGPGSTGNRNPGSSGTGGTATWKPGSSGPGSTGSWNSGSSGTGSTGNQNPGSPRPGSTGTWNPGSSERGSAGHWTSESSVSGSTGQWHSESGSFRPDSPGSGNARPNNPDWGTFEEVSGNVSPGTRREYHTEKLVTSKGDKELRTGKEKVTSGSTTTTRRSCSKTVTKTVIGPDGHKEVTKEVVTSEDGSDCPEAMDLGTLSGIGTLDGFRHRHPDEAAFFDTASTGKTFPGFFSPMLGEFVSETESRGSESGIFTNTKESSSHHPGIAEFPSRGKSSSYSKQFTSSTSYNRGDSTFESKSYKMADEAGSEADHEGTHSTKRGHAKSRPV
T1 sequence (P02675 45-491 limits assumed): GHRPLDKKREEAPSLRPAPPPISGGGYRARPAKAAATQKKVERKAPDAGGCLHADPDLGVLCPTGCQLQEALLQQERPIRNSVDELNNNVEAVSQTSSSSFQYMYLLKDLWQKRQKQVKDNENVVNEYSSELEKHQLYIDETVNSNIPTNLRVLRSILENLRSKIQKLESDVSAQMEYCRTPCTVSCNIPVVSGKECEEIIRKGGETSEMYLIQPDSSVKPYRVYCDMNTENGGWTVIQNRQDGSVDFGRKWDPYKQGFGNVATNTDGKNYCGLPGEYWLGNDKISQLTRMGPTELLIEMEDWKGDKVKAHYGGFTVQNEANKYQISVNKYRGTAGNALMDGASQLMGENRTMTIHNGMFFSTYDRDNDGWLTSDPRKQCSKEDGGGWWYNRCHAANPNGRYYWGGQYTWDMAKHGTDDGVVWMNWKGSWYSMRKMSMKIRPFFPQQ
T1 sequence (P02679 27-437 isoform P02679-2 limits assumed): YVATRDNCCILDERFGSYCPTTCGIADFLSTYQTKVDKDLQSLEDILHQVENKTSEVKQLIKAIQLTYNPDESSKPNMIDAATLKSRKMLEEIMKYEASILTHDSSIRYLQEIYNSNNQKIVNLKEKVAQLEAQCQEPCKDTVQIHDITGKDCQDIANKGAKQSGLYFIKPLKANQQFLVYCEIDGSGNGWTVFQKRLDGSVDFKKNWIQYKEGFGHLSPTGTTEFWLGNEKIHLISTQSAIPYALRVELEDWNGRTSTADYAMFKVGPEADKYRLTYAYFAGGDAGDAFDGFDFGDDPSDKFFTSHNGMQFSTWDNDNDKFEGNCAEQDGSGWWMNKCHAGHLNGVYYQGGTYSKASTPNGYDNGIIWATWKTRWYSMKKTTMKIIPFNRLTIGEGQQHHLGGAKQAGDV
From the text: Microfluidic Models of Vascular Embolism—
Microfluidic devices with a narrowed cross-sectional area (80 μm high×0.5 mm wide s 200 mm long) were fabricated using soft lithography as described above. Fibrin clots formed as described below that were infused into the main channel lodged and obstructed the flow in these smaller channels. A solution of t-PA or t-PA coated microaggregates was infused at a flow rate corresponding to a shear stress of 10 dyne/cm^2 in an unobstructed channel. Prior to infusion of the t-PA solutions, bovine plasminogen (Cell Sciences, MA) was added to a final concentration of 2.2 μM (S. L. Diamond, Annual review of biomedical engineering 1, 427 (1999)). During the fibrinolysis process, the fibrin clots size were monitored in real-time (images acquired every 30 sec) on an inverted Zeiss microscope.
Experimental Fibrin Emboli—
Fibrin clots were formed by adding CaCl2 (20 mM) and human α-thrombin (1 units/ml final concentrations, Enzyme Research Laboratories, IN) to human fibrinogen (5 mg/ml, Enzyme Research Laboratories, IN), as previously described (J. C. Murciano et al., Nature biotechnology 21, 891 (2003) and C. K. Lam, T. Yoo, B. Hiner, Z. Liu, J. Grutzendler, Nature 465, 478 (2010)). […] The diameter of the resulting fibrin beads was determined by optical microscopy to be ˜[…].

- reduction of emboli (clot) size (fibrin clots): < 5%
Substance: tissue plasminogen activator [free t-PA]
- dose required for similar effects on thrombolysis relative to tPA-coated platelet mimetics ([1]; 5000 ng/ml vs 50 ng/ml): 100 fold
- effect on pulmonary artery pressure ([1]; 10 times higher dose, 500 ng/ml (FIG. 5G)): did not reduce the pulmonary artery pressure
- effect on pulmonary artery pressure ([1]; tPA 50 ng/ml (FIG. 5G)): did not reduce the pulmonary artery pressure
- effect on pulmonary artery pressure ([1]; tPA 50 ng/ml (FIG. 5G), listed as soluble tPA): failed to produce any significant clinical response
- real-time pulmonary artery pressure: effect on pulmonary hypertension ([1]; tPA 50 ng/ml (FIG. 5H)): ineffective
